Drawing on patent US7160909B2, “Cyclopenta[b]indole derivatives as sPLA2 inhibitors” (Eli Lilly and Company, priority 2001, dated 2007), this text covers IC50 for 1 compound.

SMILES strings stand for the structures.

This test has as its target T1, recombinant human secreted phospholipase A2 (Homo sapiens, UniProt P14555).
T1 sequence (P14555 21-144): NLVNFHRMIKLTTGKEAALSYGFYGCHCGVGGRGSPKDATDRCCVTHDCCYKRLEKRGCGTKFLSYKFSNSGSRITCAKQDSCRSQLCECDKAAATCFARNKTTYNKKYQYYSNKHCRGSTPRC
Briefly: chromogenic assay of recombinant human secreted phospholipase A2. Conditions: diheptanoyl thio-PC substrate, pH 7.5, 40° C. for 30 minutes, absorbance at 405 nanometers, triplicate. Format: biochemical. The source says:
The following chromogenic assay procedure was used to identify and evaluate inhibitors of recombinant human secreted phospholipase A2. The assay described herein has been adapted for high volume screening using 96 well microtiter plates. A general description of this assay method is found in the article, “Analysis of Human Synovial Fluid Phospholipase A2 on Short Chain Phosphatidylcholine-Mixed Micelles: Development of a Spectrophotometric Assay Suitable for a Microtiterplate Reader”, by Laure J. Reynolds, Lori L. Hughes, and Edward A Dennis, Analytical Biochemistry, 204, pp. 190–197, 1992 (the disclosure of which is incorporated herein by reference): […]
A measured volume of racemic dipheptanoyl thio PC supplied in chloroform at a concentration of 100 mg/ml is taken to dryness and redissolved in 10 millimolar TRITON X-100™ nonionic detergent aqueous solution. […]
• 1. […] Read absorbance of wells at 405 nanometers with an automatic plate reader.
Tests were done in triplicate. […] Compounds initially found to be active were re-assayed to confirm their activity and, if sufficiently active, IC50 values were determined. […] In all cases, % inhibition measured at 405 nanometers generated by enzyme reactions containing inhibitors relative to the uninhibited control reactions was determined. […]

Turning to `NC(=O)C1CCc2c1c1c(OCC(=O)O)cccc1n2Cc1ccccc1` (stereo not shown) [Example 1, (4-Benzyl-1-carbamoyl-1,2,3,4-tetrahydro-cyclopenta[b]indol-8-yloxy)-acetic acid], the half-inhibitory concentration (IC50) came to 0.046 µM.

As a reminder, the IC50 is the point on the concentration scale where inhibition reaches its midpoint.
